Values after ≈ are worked out from the molar mass of the structure shown. Values belong to the compound of their own block, whether it stands above or below them. Active and inactive are the calls of the source. The calls are words filed in the database; no cut-off is given here.
How the values were obtained:
[1] = target: T1, Amine oxidase [flavin-containing] B (Homo sapiens, UniProt P27338); assay: Inhibition of human recombinant MAO-B expressed in baculovirus infected BTI-TN-5B1-4 insect cells using p-tyramine as substrate preincubated for 15 mins and measured after 45 mins by Cheng-Prusoff equation analysis
T1 sequence (P27338 whole entry): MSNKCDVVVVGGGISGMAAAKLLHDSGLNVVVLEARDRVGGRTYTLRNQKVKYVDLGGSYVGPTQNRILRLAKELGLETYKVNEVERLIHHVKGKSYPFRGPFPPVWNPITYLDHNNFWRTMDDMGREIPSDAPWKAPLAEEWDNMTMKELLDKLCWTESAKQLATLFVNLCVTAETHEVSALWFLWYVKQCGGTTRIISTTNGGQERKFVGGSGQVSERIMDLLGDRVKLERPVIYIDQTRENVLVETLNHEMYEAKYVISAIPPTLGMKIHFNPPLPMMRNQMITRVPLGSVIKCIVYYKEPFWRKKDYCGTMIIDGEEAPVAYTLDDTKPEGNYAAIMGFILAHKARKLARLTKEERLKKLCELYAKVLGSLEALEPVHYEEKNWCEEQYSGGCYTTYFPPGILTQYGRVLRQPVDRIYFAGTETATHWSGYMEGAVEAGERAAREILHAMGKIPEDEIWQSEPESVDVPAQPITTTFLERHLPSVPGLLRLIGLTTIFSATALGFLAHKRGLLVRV

[2] = target: T1, Amine oxidase [flavin-containing] B; assay: biochemical; assay type: cell-based, BTI-TN-5B1-4
Description: Inhibition of human recombinant MAO-B expressed in baculovirus infected BTI-TN-5B1-4 insect cells using p-tyramine as substrate preincubated for 15 mins and measured after 45 mins by resorufin-based fluorescence assay

Homo sapiens = organism: Homo sapiens; assay: Selectivity index, ratio of IC50 for human recombinant MAO-A expressed in baculovirus infected BTI-TN-5B1-4 insect cells to IC50 for human recombinant MAO-B expressed in baculovirus infected BTI-TN-5B1-4 insect cells
[3] = Selectivity ratio of IC50 for Sprague-Dawley rat liver MAO-B to human recombinant MAO-B expressed in baculovirus infected BTI-TN-5B1-4 insect cells
[4] = Kinetic aqueous solubility of compound at 500 uM at pH 5.5 after 90 mins by UV-vis spectrophotometric analysis; assay type: physicochemical; details: buffer; for log(Kinetic_solubility): pH 5.5, 1.5 h, 500 µM; for solubility kinetic at 1.5 h, 500 µM: pH 5.5, read-out: Kinetic_solubility
[5] = Kinetic aqueous solubility of compound at 500 uM at pH 2 after 90 mins by UV-vis spectrophotometric analysis; assay type: physicochemical; details: buffer; for log(Kinetic_solubility): pH 2, 1.5 h, 500 µM; for solubility kinetic at 1.5 h, 500 µM: pH 2, read-out: Kinetic_solubility
[6] = pampa, pH 7.4, 4 h, 10000 µM
Description: (§1) Effective permeability of the compound in prisma HT buffer at 10 mM at pH 7.4 after 4 hrs by PAMPA

[7] = buffer, pH 7.4, 1.5 h, 500 µM
in vitro = assay: in vitro; design: dose or concentration left out as unconfirmed; details: PAMPA, pH 7.4
Description: as §1

physchem [8] = details: n-octanol/water, pH 7.4
physchem [9] = details: buffer, pH 7.4
[10] = target: T2, Amine oxidase [flavin-containing] A (Homo sapiens, UniProt P21397); assay: biochemical
T2 sequence (P21397 whole entry): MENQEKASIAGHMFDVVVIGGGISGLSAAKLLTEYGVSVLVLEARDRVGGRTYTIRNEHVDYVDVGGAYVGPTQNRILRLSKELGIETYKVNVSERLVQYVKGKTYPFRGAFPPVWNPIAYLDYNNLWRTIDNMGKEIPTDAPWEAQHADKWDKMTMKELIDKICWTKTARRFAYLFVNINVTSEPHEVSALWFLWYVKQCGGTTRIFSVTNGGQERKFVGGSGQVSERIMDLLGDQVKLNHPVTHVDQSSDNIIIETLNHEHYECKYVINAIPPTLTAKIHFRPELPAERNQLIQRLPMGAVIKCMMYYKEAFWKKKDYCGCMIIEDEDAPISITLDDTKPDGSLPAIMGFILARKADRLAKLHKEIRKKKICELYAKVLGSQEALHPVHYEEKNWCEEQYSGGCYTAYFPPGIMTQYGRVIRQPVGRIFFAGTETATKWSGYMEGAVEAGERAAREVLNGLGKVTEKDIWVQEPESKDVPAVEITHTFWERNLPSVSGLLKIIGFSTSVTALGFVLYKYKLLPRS
Description: Inhibition of human recombinant MAO-A expressed in baculovirus infected BTI-TN-5B1-4 insect cells using p-tyramine as substrate preincubated for 15 mins and measured after 45 mins by resorufin-based fluorescence assay

[11] = target: T3, Amine oxidase [flavin-containing] A (Rattus norvegicus, UniProt P21396)
T3 sequence (P21396 whole entry): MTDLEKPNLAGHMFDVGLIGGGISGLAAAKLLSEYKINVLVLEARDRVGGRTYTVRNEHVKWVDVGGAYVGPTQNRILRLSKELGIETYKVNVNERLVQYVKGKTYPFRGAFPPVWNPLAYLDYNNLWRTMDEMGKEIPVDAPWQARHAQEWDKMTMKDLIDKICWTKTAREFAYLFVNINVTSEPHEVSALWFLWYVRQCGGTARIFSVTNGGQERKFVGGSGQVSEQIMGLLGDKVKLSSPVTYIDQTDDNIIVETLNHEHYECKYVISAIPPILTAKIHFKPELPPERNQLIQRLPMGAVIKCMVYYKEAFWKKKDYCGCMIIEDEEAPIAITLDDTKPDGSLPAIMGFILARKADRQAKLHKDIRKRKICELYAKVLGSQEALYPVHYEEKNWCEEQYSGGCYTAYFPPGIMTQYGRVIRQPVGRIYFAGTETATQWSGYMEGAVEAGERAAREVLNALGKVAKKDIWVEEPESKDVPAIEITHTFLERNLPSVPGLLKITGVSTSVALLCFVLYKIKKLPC
Description: Inhibition of Sprague-Dawley rat liver MAO-A using p-tyramine as substrate preincubated for 15 mins and measured after 45 mins by resorufin-based fluorescence assay

[12] = target: T4, Amine oxidase [flavin-containing] B (Rattus norvegicus, UniProt P19643)
T4 sequence (P19643 whole entry): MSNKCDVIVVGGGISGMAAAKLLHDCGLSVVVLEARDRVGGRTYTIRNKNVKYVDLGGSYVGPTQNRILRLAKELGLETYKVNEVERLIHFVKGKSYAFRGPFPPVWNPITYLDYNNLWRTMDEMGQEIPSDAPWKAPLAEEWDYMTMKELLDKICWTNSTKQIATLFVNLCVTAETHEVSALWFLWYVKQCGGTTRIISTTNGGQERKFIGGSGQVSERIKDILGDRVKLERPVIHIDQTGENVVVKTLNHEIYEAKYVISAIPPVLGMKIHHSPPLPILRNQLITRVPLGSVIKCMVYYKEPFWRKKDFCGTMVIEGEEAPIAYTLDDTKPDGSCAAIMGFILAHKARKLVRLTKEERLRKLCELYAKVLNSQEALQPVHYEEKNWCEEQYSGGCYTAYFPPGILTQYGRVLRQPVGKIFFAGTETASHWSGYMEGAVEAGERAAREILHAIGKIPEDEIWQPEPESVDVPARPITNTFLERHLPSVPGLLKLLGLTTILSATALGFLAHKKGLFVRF
Description: Inhibition of Sprague-Dawley rat liver MAO-B using p-tyramine as substrate preincubated for 15 mins and measured after 45 mins by resorufin-based fluorescence assay

Cortical neurone [13] = assay: Neuroprotective activity in rat primary cortical neurons at 0.1 to 1 nM after 120 hrs; assay type: functional, cell-based
Cortical neurone [14] = assay: Neuroprotective activity in rat primary cortical neurons assessed as increase in survival at 1 nM after 120 hrs relative to untreated control; assay type: functional
Cortical neurone [15] = assay: Neuroprotective activity in rat primary cortical neurons assessed as increase in survival at 100 nM after 120 hrs relative to untreated control; assay type: functional
Cortical neurone [16] = assay: Neuroprotective activity in rat primary cortical neurons assessed as induction of neurite network outgrowth at 1 to 10 pM after 120 hrs; assay type: functional, cell-based
Cortical neurone [17] = assay: Neuroprotective activity in rat primary cortical neurons assessed as induction of neurite network outgrowth at 10 to 100 nM after 120 hrs; assay type: functional, cell-based
Cortical neurone [18] = assay: Neuroprotective activity in rat primary cortical neurons neurovascular unit model assessed as increase in survival at 1 pM to 10 nM after 120 hrs in presence of HBMEC relative to untreated control; assay type: functional, cell-based
Cortical neurone [19] = assay: Neuroprotective activity in rat primary cortical neurons neurovascular unit model assessed as induction of neurite network outgrowth at 1 pM to 10 nM after 120 hrs in presence of HBMEC relative to untreated control; assay type: functional, cell-based
Cortical neurone [20] = assay: Neuroprotective activity in rat primary cortical neurons neurovascular unit model assessed as increase in survival at 150 to 300 nM after 120 hrs in presence of HBMEC relative to untreated control; assay type: functional, cell-based
Cortical neurone [21] = assay: Neuroprotective activity in rat primary cortical neurons neurovascular unit model assessed as induction of neurite network outgrowth at 150 to 300 nM after 120 hrs in presence of HBMEC relative to untreated control; assay type: functional, cell-based
[22] = target: T1, Amine oxidase [flavin-containing] B; assay: Reversible inhibition of human recombinant MAO-B expressed in baculovirus infected BTI-TN-5B1-4 insect cells at IC80 using p-tyramine as substrate incubated for 20 mins followed by increase in substrate concentration up to 1 mM and measured after 300 mins by fluorescence assay

- Ki [1]: 5.48 nM
SMILES: O=C(Nc1ccc2[nH]ncc2c1)c1ccc(Cl)c(Cl)c1

- IC50 [2]: 28.9 nM
- Ki [1]: 12.8 nM
- log(Kinetic_solubility) [4]: -4.16
- solubility kinetic at 1.5 h, 500 µM [4]: 68.8 µM (≈ 21.1 µg/mL)
- log(Kinetic_solubility) [5]: -3.37
- solubility kinetic at 1.5 h, 500 µM [5]: 426 µM (≈ 130 µg/mL)
- log(permeability) [6]: -3.96
- log(Kinetic_solubility) [7]: -4.19
- Papp at 4 h (in vitro): 111 ×10⁻⁶ cm/s
- logD at 1.5 h (physchem [8]): 3.04
- solubility kinetic at 1.5 h, 500 µM (physchem [9]): 65.1 µM (≈ 19.9 µg/mL)
- IC50 [10]: > 10000 nM
SMILES: O=C(Nc1cc2cc[nH]c2cn1)c1ccc(Cl)c(Cl)c1
- Ratio IC50 (Homo sapiens): > 346
- Ratio IC50 [3]: 1.1

- IC50 [2]: 121 nM
- Ki [1]: 53.5 nM
- IC50 [11]: > 10000 nM
- IC50 [12]: 574 nM
- IC50 [10]: > 10000 nM
SMILES: O=C(Nc1cc2cc[nH]c2cn1)c1ccc(Cl)c(F)c1
- Ratio IC50 (Homo sapiens): > 82
- Ratio IC50 [3]: 1.1

SMILES: O=C(Nc1ccc2[nH]ccc2n1)c1ccc(Cl)c(Cl)c1
- log(Kinetic_solubility) [4]: -4.37
- solubility kinetic at 1.5 h, 500 µM [4]: 42.9 µM (≈ 13.1 µg/mL)
- log(Kinetic_solubility) [5]: -3.33
- solubility kinetic at 1.5 h, 500 µM [5]: 471 µM (≈ 144 µg/mL)
- Activity (Cortical neurone [13]): Active
- Efficacy (Cortical neurone [14]): 31%
- Efficacy (Cortical neurone [15]): 11%
- Activity (Cortical neurone [16]): Active
- Activity (Cortical neurone [17]): inactive
- Activity (Cortical neurone [18]): Active
- Activity (Cortical neurone [19]): Active
- log(permeability) [6]: -3.97
- log(Kinetic_solubility) [7]: -4.4
- Papp at 4 h (in vitro): 107 ×10⁻⁶ cm/s
- logD at 1.5 h (physchem [8]): 3.19
- solubility kinetic at 1.5 h, 500 µM (physchem [9]): 39.8 µM (≈ 12.2 µg/mL)
- IC50 [10]: > 10000 nM

- IC50 [2]: 5.9 nM
- IC50 [11]: 7700 nM
- IC50 [12]: 14.7 nM
SMILES: CC(=O)N[C@H]1CC(=O)N(c2ccc(OCc3cccc(F)c3)cc2)C1 [SEMBRAGILINE]
- Ratio IC50 (Homo sapiens): 653

- Ki [1]: 122 nM
- IC50 [12]: 1300 nM
SMILES: O=C(Nc1cc2cc[nH]c2cn1)c1ccc(F)c(F)c1
- Ratio IC50 (Homo sapiens): > 36
- Ratio IC50 [3]: 1.1

- Ki [1]: 4.82 nM
- log(Kinetic_solubility) [4]: -4.09
- solubility kinetic at 1.5 h, 500 µM [4]: 82.1 µM (≈ 23.8 µg/mL)
- log(Kinetic_solubility) [5]: -3.41
- solubility kinetic at 1.5 h, 500 µM [5]: 391 µM (≈ 113 µg/mL)
- log(permeability) [6]: -3.9
- log(Kinetic_solubility) [7]: -4.03
- Papp at 4 h (in vitro): 127 ×10⁻⁶ cm/s
- logD at 1.5 h (physchem [8]): 2.69
- solubility kinetic at 1.5 h, 500 µM (physchem [9]): 93.8 µM (≈ 27.2 µg/mL)
- IC50 [10]: > 10000 nM
SMILES: O=C(Nc1ccc2[nH]ccc2n1)c1ccc(Cl)c(F)c1
- Ratio IC50 (Homo sapiens): > 917
- Ratio IC50 [3]: 1.1

- Ki [1]: 20.4 nM
- IC50 [10]: > 10000 nM
SMILES: O=C(Nc1ccc2[nH]ccc2n1)c1ccc(F)c(F)c1
- Ratio IC50 (Homo sapiens): > 217
- Ratio IC50 [3]: 1.1

- Ki [1]: 1460 nM
SMILES: O=C(Nc1ccc2[nH]ncc2c1)c1c(F)cccc1Cl

SMILES: C[C@]12CC[C@@H]3c4ccc(O)cc4CC[C@H]3[C@@H]1CC[C@@H]2O
- Activity (Cortical neurone [20]): Active
- Activity (Cortical neurone [21]): Active

- Ki [1]: 31.8 nM
- IC50 [11]: > 10000 nM
- IC50 [10]: > 10000 nM
SMILES: O=C(Nc1cc2cc[nH]c2cn1)c1ccc(F)c(Cl)c1
- Ratio IC50 (Homo sapiens): > 138
- Ratio IC50 [3]: 1.1

- Ki [1]: 1.45 nM
- inhibition (INH) [22]: Active
- log(Kinetic_solubility) [4]: -3.96
- solubility kinetic at 1.5 h, 500 µM [4]: 111 µM (≈ 32.1 µg/mL)
- log(Kinetic_solubility) [5]: -3.33
- solubility kinetic at 1.5 h, 500 µM [5]: 501 µM (≈ 145 µg/mL)
- log(permeability) [6]: -3.96
- log(Kinetic_solubility) [7]: -3.92
- Papp at 4 h (in vitro): 110 ×10⁻⁶ cm/s
- logD at 1.5 h (physchem [8]): 2.32
- solubility kinetic at 1.5 h, 500 µM (physchem [9]): 119 µM (≈ 34.5 µg/mL)
- IC50 [10]: > 10000 nM
SMILES: O=C(Nc1ccc2[nH]ccc2n1)c1ccc(F)c(Cl)c1
- Ratio IC50 (Homo sapiens): > 3060
- Ratio IC50 [3]: 1.1

- Ki [1]: 390 nM
SMILES: O=C(Cc1ccc(Cl)c(Cl)c1)Nc1ccc2[nH]ccc2c1

- Ki [1]: 1140 nM
SMILES: O=C(Nc1ccc2[nH]ncc2c1)c1cccc(Cl)c1Cl
